ChEMBL document CHEMBL5149974, “Antimicrobial drugs bearing guanidine moieties: A review” (Eur J Med Chem, 2021)
Converted amounts (≈) assume the structure as drawn.

How the values were obtained:
Assay type in all cases: functional
[1] = system: Mycobacterium tuberculosis; experiment: Potentiation of isoniazid-induced antimycobacterial activity against Mycobacterium tuberculosis H37Rv assessed as reduction in isoniazid MIC at 125 uM incubated for 48 hrs by alamar blue staining based analysis
[2] = system: Mycobacterium tuberculosis; experiment: Potentiation of isoniazid-induced antimycobacterial activity against Mycobacterium tuberculosis H37Rv assessed as reduction in isoniazid MIC at 250 uM incubated for 48 hrs by alamar blue staining based analysis
Staphylococcus aureus [3] = experiment: Potentiation of Norfloxacin-induced antibacterial activity against Staphylococcus aureus 1199B overexpressing NorA efflux pump assessed as fold reduction in norfloxacin MIC by microdilution method
Staphylococcus aureus [4] = experiment: Potentiation of ethidium bromide-induced antibacterial activity against Staphylococcus aureus 1199B overexpressing NorA efflux pump assessed as fold reduction in ethidium bromide MIC by microdilution method
Staphylococcus aureus [5] = experiment: Potentiation of ethidium bromide-induced antibacterial activity against Staphylococcus aureus 1199B overexpressing NorA efflux pump assessed as ethidium bromide MIC by microdilution method
Staphylococcus aureus [6] = experiment: Potentiation of Norfloxacin-induced antibacterial activity against Staphylococcus aureus 1199B overexpressing NorA efflux pump assessed as norfloxacin MIC by microdilution method
[7] = system: Mycolicibacterium smegmatis; experiment: Potentiation of cefotaxime-induced antimycobacterial activity against Mycobacterium smegmatis assessed as cefotaxime MIC at 9 ug/ml (reference value: 128 ug/ml); conditions: dose 9 µg/ml
Klebsiella pneumoniae = experiment: Antibacterial activity against Klebsiella pneumoniae ATCC 13833 assessed as growth inhibition incubated for 18 hrs by broth microdilution method
Enterococcus faecalis [8] = experiment: Antibacterial activity against Enterococcus faecalis ATCC 29212 assessed as growth inhibition incubated for 18 hrs by broth microdilution method
Escherichia coli [9] = experiment: Antibacterial activity against Escherichia coli CCUG assessed as growth inhibition incubated for 18 hrs by broth microdilution method
Staphylococcus aureus [10] = experiment: Antibacterial activity against Staphylococcus aureus ATCC 25923 assessed as growth inhibition incubated for 18 hrs by broth microdilution method
[11] = system: Staphylococcus epidermidis; experiment: Antibacterial activity against Staphylococcus epidermidis ATCC 14990 assessed as growth inhibition incubated for 18 hrs by broth microdilution method
Bacillus subtilis [12] = experiment: Antibacterial activity against Bacillus subtilis ATCC 6633 assessed as growth inhibition incubated for 18 hrs by broth microdilution method
Acinetobacter baumannii = experiment: Antibacterial activity against Acinetobacter baumannii ATCC 17978 assessed as growth inhibition incubated for 18 hrs by broth microdilution method
Pseudomonas aeruginosa [13] = experiment: Antibacterial activity against Pseudomonas aeruginosa ATCC 27853 assessed as growth inhibition incubated for 18 hrs by broth microdilution method
Bacillus subtilis [14] = experiment: Antibacterial activity against Bacillus subtilis assessed as inhibition of bacterial growth measured after 24 hrs
Escherichia coli [15] = experiment: Antibacterial activity against Escherichia coli CMCC 25922 assessed as inhibition of bacterial growth incubated for 24 hrs by microplate reader analysis
Bacillus subtilis [16] = experiment: Antibacterial activity against Bacillus subtilis CMCC 63501 assessed as inhibition of bacterial growth incubated for 24 hrs by microplate reader analysis
Staphylococcus aureus [17] = experiment: Antibacterial activity against multidrug-resistant Staphylococcus aureus ATCC 33591 assessed as inhibition of bacterial growth incubated for 24 hrs by microplate reader analysis
Staphylococcus aureus [18] = experiment: Antibacterial activity against multidrug-resistant Staphylococcus aureus ATCC 43300 assessed as inhibition of bacterial growth incubated for 24 hrs by microplate reader analysis
Staphylococcus aureus [19] = experiment: Antibacterial activity against Staphylococcus aureus CMCC 25923 assessed as inhibition of bacterial growth incubated for 24 hrs by microplate reader analysis
Escherichia coli [20] = experiment: Antibacterial activity against Escherichia coli CMCC 44568 assessed as inhibition of bacterial growth incubated for 24 hrs by microplate reader analysis
Staphylococcus aureus [21] = experiment: Antibacterial activity against Staphylococcus aureus assessed as inhibition of bacterial growth measured after 24 hrs
Enterococcus faecalis [22] = experiment: Antibacterial activity against Enterococcus faecalis assessed as inhibition of bacterial growth measured after 24 hrs
Pseudomonas aeruginosa [23] = experiment: Antibacterial activity against Pseudomonas aeruginosa CMCC 10104 assessed as inhibition of bacterial growth incubated for 24 hrs by microplate reader analysis
Staphylococcus aureus [24] = experiment: Antibacterial activity against Staphylococcus aureus CMCC (B) 26003 assessed as inhibition of bacterial growth incubated for 24 hrs by microplate reader analysis
Pseudomonas aeruginosa [25] = experiment: Antibacterial activity against multidrug-resistant Pseudomonas aeruginosa ATCC BAA-2111 assessed as inhibition of bacterial growth incubated for 24 hrs by microplate reader analysis
Enterococcus faecalis [26] = experiment: Antibacterial activity against Enterococcus faecalis CMCC 29212 assessed as inhibition of bacterial growth incubated for 24 hrs by microplate reader analysis
Pseudomonas aeruginosa [27] = experiment: Antibacterial activity against Pseudomonas aeruginosa CMCC 27853 assessed as inhibition of bacterial growth incubated for 24 hrs by microplate reader analysis
Streptococcus mutans = experiment: Antibacterial activity against Streptococcus mutans BNCC 336931 assessed as inhibition of bacterial growth incubated for 24 hrs by microplate reader analysis
[28] = system: Mycobacterium tuberculosis; experiment: Anti-mycobacterial activity against Mycobacterium tuberculosis H37Rv ATCC […] assessed as bacterial growth inhibition by alamar blue assay
Staphylococcus aureus [29] = experiment: Antibacterial activity against methicillin-resistant Staphylococcus aureus ATCC 33591 assessed as bacterial growth inhibition by CLSI based broth microdilution method
Staphylococcus aureus [30] = experiment: Antibacterial activity against Staphylococcus aureus assessed as bacterial growth inhibition incubated for 24 hrs
[31] = system: Mycobacterium tuberculosis; experiment: Anti-mycobacterial activity against Mycobacterium tuberculosis H37Rv ATCC 27294 assessed as bacterial growth inhibition incubated for 7 days by resazurin dye based assay; conditions: H37Rv ATCC 27294, 168 h, time 7 day
[32] = system: Plasmodium vinckei petteri; experiment: Antimalarial activity against Plasmodium vinckei petteri 279BY infected in Swiss mouse assessed as reduction in parasitemia administered intraperitoneally once daily for 4 consecutive days and measured on day 5; conditions: 120 h, route ip, time 5 day
[33] = system: Plasmodium vinckei petteri; experiment: Antimalarial activity against Plasmodium vinckei petteri 279BY infected in Swiss mouse assessed as reduction in parasitemia administered orally once daily for 4 consecutive days and measured on day 5; conditions: 120 h, route po, time 5 day
Escherichia coli [34] = experiment: Antibacterial activity against Escherichia coli assessed as bacterial growth inhibition incubated for 24 hrs
[35] = system: Mycobacterium tuberculosis; experiment: Antibacterial activity against Mycobacterium tuberculosis H37Rv assessed as bacterial growth inhibition by vertical diffusion method

CCCCCCc1ccc(-c2c[nH]c(N)n2)cc1
MIC [1]: 0.039 µg/mL | MIC [2]: 0.039 µg/mL

Cl.N#Cc1ccc(/C=N/NC(=N)N)cc1
fold change (FC) (Staphylococcus aureus [3]): <=16 | fold change (FC) (Staphylococcus aureus [4]): <=32

Cl.N=C(N)N/N=C/c1ccnc2ccccc12
MIC (Staphylococcus aureus [5]): 1 µg/mL | MIC (Staphylococcus aureus [6]): 8 µg/mL | fold change (FC) (Staphylococcus aureus [3]): <=16 | fold change (FC) (Staphylococcus aureus [4]): <=32

CCCCCc1ccc(C(=O)Nc2ccc3c(c2)nc(N)n3CCCc2ccccc2)cc1
MIC [7]: 1 µg/mL

Cl.NC(N)=N/N=C/c1ccc(Cl)c(Cl)c1
fold change (FC) (Staphylococcus aureus [3]): <=16 | fold change (FC) (Staphylococcus aureus [4]): <=32

N=C(N)NCCCCCCCCN(CCCCCCCCNC(=N)NCC1CC1)C(=O)N(CCCCCCCCNC(=N)N)CCCCCCCCNC(=N)NCC1CC1
MIC (Klebsiella pneumoniae): 0.5 µg/mL (≈ 0.591 µM) | MIC (Enterococcus faecalis [8]): 0.5 µg/mL (≈ 0.591 µM) | MIC (Escherichia coli [9]): 0.5 µg/mL (≈ 0.591 µM) | MIC (Staphylococcus aureus [10]): 0.5 µg/mL (≈ 0.591 µM) | MIC [11]: 0.5 µg/mL (≈ 0.591 µM) | MIC (Bacillus subtilis [12]): 0.5 µg/mL (≈ 0.591 µM) | MIC (Acinetobacter baumannii): 0.5 µg/mL (≈ 0.591 µM) | MIC (Pseudomonas aeruginosa [13]): 0.5 µg/mL (≈ 0.591 µM)

N=C(N)N/N=C/c1ccc(C#Cc2ccc(Cl)cc2)cc1
MIC (Bacillus subtilis [14]): 0.25 µg/mL (≈ 0.842 µM) | MIC (Escherichia coli [15]): 0.25 µg/mL (≈ 0.842 µM) | MIC (Bacillus subtilis [16]): 0.25 µg/mL (≈ 0.842 µM) | MIC (Staphylococcus aureus [17]): 0.25 µg/mL (≈ 0.842 µM) | MIC (Staphylococcus aureus [18]): 0.25 µg/mL (≈ 0.842 µM) | MIC (Staphylococcus aureus [19]): 0.25 µg/mL (≈ 0.842 µM) | MIC (Escherichia coli [20]): 0.25 µg/mL (≈ 0.842 µM) | MIC (Staphylococcus aureus [21]): 0.25 µg/mL (≈ 0.842 µM) | MIC (Enterococcus faecalis [22]): 0.25 µg/mL (≈ 0.842 µM) | MIC (Pseudomonas aeruginosa [23]): 0.25 µg/mL (≈ 0.842 µM) | MIC (Staphylococcus aureus [24]): 0.25 µg/mL (≈ 0.842 µM) | MIC (Pseudomonas aeruginosa [25]): 0.25 µg/mL (≈ 0.842 µM) | MIC (Enterococcus faecalis [26]): 0.25 µg/mL (≈ 0.842 µM) | MIC (Pseudomonas aeruginosa [27]): 0.25 µg/mL (≈ 0.842 µM) | MIC (Streptococcus mutans): 0.25 µg/mL (≈ 0.842 µM)

Cc1ccc(-n2nc(C)c3c(-c4c(C)nn(-c5ccccc5)c4Cl)nc(N)nc32)cc1
MIC [28]: 1.2 µg/mL (≈ 2.79 µM)

N=C(N)NC[C@H]1OC(O[C@H]2C(NC(=O)[C@H](O)CCN)C[C@H](N)[C@@H](O[C@H]3O[C@H](CN)[C@@H](O)[C@H](O)[C@H]3O)[C@@H]2O)[C@H](O)[C@@H](N)[C@@H]1O (stereo not given in full)
MIC (Staphylococcus aureus [29]): 3.12 µg/mL (≈ 4.99 µM)

Cl.N=C(N)NCCCNC(=O)C(=O)c1cc(Cl)ccc1NC(=O)c1ccc2ccccc2c1
MIC (Staphylococcus aureus [30]): 8 µg/mL

N=C(N)NCCNC(=O)c1cc2c([nH]c3ccccc32)c(-c2ccc(O)cc2)n1
MIC [31]: 27.8 µg/mL (≈ 71.6 µM)

Cn1oc(=O)n(CCCCCCCCCCCCn2c(=O)on(C)c2=O)c1=N
ED50 [32]: 4 mg/kg | ED50 [33]: 82 mg/kg

Cl.N=C(N)NCCCNC(=O)C(=O)c1cc(Br)ccc1NC(=O)c1ccc2ccccc2c1
MIC (Staphylococcus aureus [30]): 6 µg/mL

COC(=O)C(CCCCNC(=N)N)NC(=O)C(=O)c1ccccc1NC(=O)c1ccc2ccccc2c1.Cl (stereo not given)
MIC (Escherichia coli [34]): 17 µg/mL

Cc1nn(-c2ccccc2)c(Cl)c1-c1nc(N)nc2c1c(C)nn2-c1ccc(S(=O)(=O)O)cc1Cl
MIC [28]: 1.2 µg/mL (≈ 2.26 µM)

Cc1nn(-c2ccccc2)c(Cl)c1-c1nc(N)nc2c1c(C)nn2-c1cccc(Cl)c1
MIC [28]: 1.2 µg/mL (≈ 2.66 µM)

N=C(N)Nc1nnc2nccn2n1
MIC [35]: 1.5 µg/mL (≈ 8.42 µM)
